Results published in ChEMBL document CHEMBL4431321, “Profiling of Flavonol Derivatives for the Development of Antitrypanosomatidic Drugs” (J Med Chem, 2016).
Activity calls are given as the source filed them. The calls are words filed in the database; no cut-off is given here.

Experiments:
[1] = system: Trypanosoma brucei brucei; experiment: Antitrypanosomal activity against Trypanosoma brucei brucei Lister 427 bloodstream forms after 72 hrs by resazurin-based assay; format: functional, organism-based; details: Lister 427, 72 h
[2] = Inhibition of Trypanosoma brucei PTR1 using H2B as substrate incubated for 10 mins followed by addition of NADPH measured for 10 to 50 mins
in vitro = details: human, THP-1 cells
Description: Selectivity index, ratio of CC50 for human THP1 cells to EC50 for Trypanosoma brucei brucei Lister 427 bloodstream forms

WI-38 = experiment: Cytotoxicity against human WI38 cells at 100 uM after 48 hrs by cell titer glo assay; format: cell-based; details: wi-38, 48 h
[3] = system: Trypanosoma brucei brucei; experiment: Antitrypanosomal activity against Trypanosoma brucei brucei Lister 427 bloodstream forms at 10 uM after 72 hrs by resazurin-based assay; format: functional, organism-based
Cytochrome P450 1A2 = target: T1, Cytochrome P450 1A2 (Homo sapiens, UniProt P05177); experiment: Inhibition of human microsomal CYP1A2 expressed in baculovirus infected BTI-TN-5B1-4 cells at 10 uM incubated for 30 mins by luciferase assay; format: ADME; details: bti-tn-5b1-4, 0.5 h, 10 µM
T1 sequence (P05177 whole entry): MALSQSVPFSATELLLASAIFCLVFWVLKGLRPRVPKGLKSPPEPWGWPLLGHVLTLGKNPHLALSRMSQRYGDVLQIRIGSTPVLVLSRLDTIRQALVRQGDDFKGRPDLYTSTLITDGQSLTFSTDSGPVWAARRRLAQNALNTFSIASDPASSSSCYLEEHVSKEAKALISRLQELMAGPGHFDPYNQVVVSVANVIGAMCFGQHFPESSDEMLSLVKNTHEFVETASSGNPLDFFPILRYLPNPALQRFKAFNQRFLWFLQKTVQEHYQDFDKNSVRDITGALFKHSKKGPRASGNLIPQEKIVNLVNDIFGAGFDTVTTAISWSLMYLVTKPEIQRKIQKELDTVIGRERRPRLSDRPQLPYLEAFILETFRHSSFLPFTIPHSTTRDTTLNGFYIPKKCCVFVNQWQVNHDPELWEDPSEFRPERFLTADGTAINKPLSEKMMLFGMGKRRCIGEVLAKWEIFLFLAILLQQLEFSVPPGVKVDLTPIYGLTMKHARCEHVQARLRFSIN

A549 = experiment: Cytotoxicity against human A549 cells at 100 uM after 48 hrs by cell titer glo assay; format: cell-based; details: a549, 48 h
[4] = Cytotoxicity against human THP1 cells after 72 hrs by MTT assay; format: cell-based; details: THP-1 cells; for MNTC at 72 h: read-out: NOAEL
786-0 = experiment: Mitochondrial toxicity in human 786-O cells incubated for 6 hrs by mitotracker red staining based-uptake method; format: cell-based; details: 786-0, 6 h
[5] = target: T2, Dihydrofolate reductase (Homo sapiens) (UniProt P00374); experiment: Inhibition of human DHFR at 50 uM using folic aid as substrate by spectrophotometric analysis
T2 sequence (whole entry): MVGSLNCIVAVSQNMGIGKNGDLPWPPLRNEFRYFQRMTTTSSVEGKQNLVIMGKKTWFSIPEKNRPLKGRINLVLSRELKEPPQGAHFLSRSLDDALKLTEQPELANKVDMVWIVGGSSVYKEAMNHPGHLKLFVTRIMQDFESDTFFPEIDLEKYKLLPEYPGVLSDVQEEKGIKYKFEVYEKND

[6] = target: Thymidylate synthase (Homo sapiens) (UniProt P04818); experiment: Inhibition of human thymidylate synthase at 50 uM using folic aid as substrate by spectrophotometric analysis
Chain of Thymidylate synthase (Homo sapiens) (P04818 2-313 limits assumed): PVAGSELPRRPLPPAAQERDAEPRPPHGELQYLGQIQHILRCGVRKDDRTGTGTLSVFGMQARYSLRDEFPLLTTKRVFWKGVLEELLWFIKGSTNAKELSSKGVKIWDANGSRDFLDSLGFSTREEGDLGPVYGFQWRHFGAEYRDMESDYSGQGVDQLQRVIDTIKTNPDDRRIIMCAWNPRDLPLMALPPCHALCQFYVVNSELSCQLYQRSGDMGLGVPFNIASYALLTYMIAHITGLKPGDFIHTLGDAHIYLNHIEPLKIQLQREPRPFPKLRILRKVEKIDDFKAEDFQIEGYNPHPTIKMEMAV

Trypanosoma brucei [7] = experiment: Inhibition of Trypanosoma brucei DHFR at 50 uM using folic aid as substrate by spectrophotometric analysis
Leishmania mexicana = experiment: Inhibition of Leishmania mexicana DHFR at 50 uM using folic aid as substrate by spectrophotometric analysis
Trypanosoma brucei [8] = experiment: Inhibition of Trypanosoma brucei PTR1 at 50 uM using H2B as substrate incubated for 10 mins followed by addition of NADPH measured for 10 to 50 mins
[9] = system: Trypanosoma brucei brucei; experiment: Antitrypanosomal activity against Trypanosoma brucei brucei Lister 427 bloodstream forms assessed as synergy coefficient at 1.25 to 5 uM after 72 hrs in presence of MTX by resazurin-based assay; format: functional

## O=c1cc(-c2ccccc2)oc2ccccc12 [FLAVONE]
[1]
  IC50: < 30 µM

## O=C(O)/C=C/c1cccc(O)c1
[1]
  IC50: < 30 µM

## O=C(O)/C=C/c1ccccc1O [O-COUMARIC ACID]
[1]
  IC50: < 30 µM

## COc1cc(-c2cc(=O)c3c(O)cc(O)cc3o2)ccc1O [CHRYSOERIOL]
[1]
  IC50: < 30 µM

## COc1cccc(/C=C/C(=O)O)c1
[1]
  IC50: < 30 µM

## O=C(O)/C=C/c1ccc(O)c(O)c1 [CAFFEIC ACID]
[1]
  IC50: < 30 µM

## COc1cc(O)c2c(=O)cc(-c3ccccc3)oc2c1 [TECHTOCHRYSIN]
[1]
  IC50: < 30 µM

## COc1cc(OC)c2c(=O)cc(-c3ccccc3)oc2c1 [CHRYSIN DIMETHYL ETHER]
[1]
  IC50: < 30 µM

## Oc1cc(O)c2c(c1)O[C@H](c1ccc(O)c(O)c1)[C@H](O)C2 [(-)-EPICATECHIN]
[1]
  IC50: < 30 µM

## COc1ccc([C@H]2CC(=O)c3c(O)cc(O[C@@H]4O[C@H](CO[C@@H]5O[C@@H](C)[C@H](O)[C@@H](O)[C@H]5O)[C@@H](O)[C@H](O)[C@H]4O)cc3O2)cc1O
[1]
  IC50: < 30 µM

## O=c1c(O)c(-c2ccc(O)cc2)oc2cc(O)cc(O)c12 [KAEMPFEROL]
[2]
  IC50: 28 µM
[1]
  IC50: 9 µM

## O=C(O)c1cc(O)c(O)c(O)c1 [GALLIC ACID]
[1]
  IC50: < 30 µM

## CC1(C(=O)O)CCC2(C)CCC3(C)C(=CC(=O)C4C5(C)CCC(OC6OC(C(=O)O)C(O)C(O)C6OC6OC(C(=O)O)C(O)C(O)C6O)C(C)(C)C5CCC43C)C2C1 (configuration not stated)
[1]
  IC50: < 30 µM

## O=C1CC(c2ccc(O)cc2)Oc2cc(O)cc(O)c21 (configuration not stated)
[1]
  IC50: < 30 µM

## COc1ccc(/C=C/C(=O)O)cc1O [ISOFERULIC ACID]
[1]
  IC50: < 30 µM

## COc1cccc(-c2oc3cc(OC)ccc3c(=O)c2O)c1
In vitro
  selectivity ratio: 8
WI-38
  Activity: Non-Toxic
[3]
  Activity: Active
Cytochrome P450 1A2
  inhibition (INH): Not Active
A549
  Activity: Non-Toxic
[4]
  MNTC at 72 h: 10 µM
786-0
  Activity: Non-Toxic

## O=c1cc(-c2ccc(O)c(O)c2)oc2cc(O[C@@H]3O[C@@H](CO)[C@H](O)[C@@H](O)[C@@H]3O)cc(O)c12
[1]
  IC50: < 30 µM

## O=c1cc(-c2ccc(O)c(O)c2)oc2cc(O)cc(O)c12 [LUTEOLIN]
[1]
  IC50: < 30 µM

## O=c1c(O)c(-c2ccc(O)c(O)c2)oc2ccc(O)cc12
[5]
  inhibition: < 30%
In vitro
  selectivity ratio: 6
WI-38
  Activity: Non-Toxic
[6]
  inhibition: inactive
[3]
  Activity: Active
Trypanosoma brucei [7]
  inhibition: < 25%
[1]
  EC50: 1.36 µM
Cytochrome P450 1A2
  inhibition (INH): Not Active
A549
  Activity: Non-Toxic
[4]
  MNTC at 72 h: 10 µM
786-0
  Activity: Non-Toxic
Leishmania mexicana
  inhibition: < 25%

## COc1ccc(-c2oc3cc(OC)ccc3c(=O)c2O)cc1
In vitro
  selectivity ratio: 9
WI-38
  Activity: Non-Toxic
[3]
  Activity: Active
Cytochrome P450 1A2
  inhibition (INH): Not Active
A549
  Activity: Non-Toxic
[4]
  MNTC at 72 h: 10 µM
786-0
  Activity: Non-Toxic

## O=c1c(O)c(-c2ccc(O)cc2)oc2ccc(O)cc12
[5]
  inhibition: < 30%
Trypanosoma brucei [8]
  inhibition: 3%
In vitro
  selectivity ratio: 7
WI-38
  Activity: Non-Toxic
[6]
  inhibition: inactive
[3]
  Activity: Active
Trypanosoma brucei [7]
  inhibition: < 25%
[1]
  EC50: 2.32 µM
Cytochrome P450 1A2
  inhibition (INH): Not Active
A549
  Activity: Non-Toxic
[9]
  CI: >1.5
[4]
  MNTC at 72 h: 20 µM
786-0
  Activity: Non-Toxic
Leishmania mexicana
  inhibition: < 25%

## O=c1cc(-c2ccccc2)oc2cccc(O)c12 [5-HYDROXYFLAVONE]
[1]
  IC50: < 30 µM

## Cc1cc(O)c2c(c1)C(=O)c1cc(O)cc(O)c1C2=O [EMODIN]
[1]
  IC50: < 30 µM

## COc1cc(-c2oc3cc(O)cc(O)c3c(=O)c2O)ccc1O [ISORHAMNETIN]
[2]
  IC50: 13.9 µM
[1]
  IC50: 11.2 µM

## COc1ccc([C@@H]2CC(=O)c3c(O)cc(O)cc3O2)cc1O [HESPERETIN]
[1]
  IC50: < 30 µM

## COc1ccc([C@H]2CC(=O)c3c(O)cc(O[C@@H]4O[C@H](CO)[C@@H](O)[C@H](O)[C@H]4O[C@@H]4O[C@@H](C)[C@H](O)[C@@H](O)[C@H]4O)cc3O2)cc1O
[1]
  IC50: < 30 µM

## O=c1c(O)c(-c2ccccc2)oc2ccccc12 [FLAVONOL]
[2]
  IC50: 12.8 µM
[1]
  IC50: 9.1 µM

## O=C(/C=C/c1ccc(O)c(O)c1)O[C@@H]1C[C@](O)(C(=O)O)C[C@@H](O)[C@H]1O [CHLOROGENIC ACID]
[1]
  IC50: < 30 µM

## C[C@H]1O[C@@H](O[C@@H]2[C@H](Oc3cc(O)c4c(c3)OC(c3ccc(O)cc3)CC4=O)O[C@@H](CO)[C@H](O)[C@H]2O)[C@@H](O)[C@@H](O)[C@@H]1O (some centres not stated)
[1]
  IC50: < 30 µM

## Oc1cc(O)c2c(c1)O[C@H](c1ccc(O)c(O)c1)[C@@H](O)C2 [CIANIDANOL]
[1]
  IC50: < 30 µM

## N=C(N)c1ccc(OCCCCCOc2ccc(C(=N)N)cc2)cc1 [PENTAMIDINE]
In vitro
  selectivity ratio: 6440
[4]
  MNTC at 72 h: 10 µM

## COc1cc(/C=C/C(=O)O)ccc1O [FERULATE]
[1]
  IC50: < 30 µM

## O=C1c2c(O)cccc2C(C2OC(CO)C(O)C(O)C2O)c2cc(CO)cc(O)c21 (configuration not stated)
[1]
  IC50: < 30 µM

## O=c1c(O)c(-c2ccccc2O)oc2cc(O)cc(O)c12 [DATISCETIN]
[2]
  IC50: 76.9 µM
[1]
  IC50: 27 µM

## COc1ccc2oc(-c3ccc(OC)c(OC)c3)c(O)c(=O)c2c1
In vitro
  selectivity ratio: 5
WI-38
  Activity: Non-Toxic
[3]
  Activity: Active
Cytochrome P450 1A2
  inhibition (INH): Not Active
A549
  Activity: Non-Toxic
[9]
  CI: >1
[4]
  MNTC at 72 h: 10 µM
786-0
  Activity: Non-Toxic

## O=c1c(O)c(-c2cccc(O)c2)oc2cc(O)ccc12
[5]
  inhibition: < 30%
Trypanosoma brucei [8]
  inhibition: 47%
In vitro
  selectivity ratio: 6
WI-38
  Activity: Non-Toxic
[6]
  inhibition: inactive
[3]
  Activity: Active
Trypanosoma brucei [7]
  inhibition: < 25%
[1]
  EC50: 12.3 µM
Cytochrome P450 1A2
  inhibition (INH): Not Active
A549
  Activity: Non-Toxic
[9]
  CI: >1
[4]
  CC50 at 72 h: 80 µM
786-0
  Activity: Non-Toxic
Leishmania mexicana
  inhibition: < 25%

## O=c1cc(-c2ccccc2)oc2cc(O)cc(O)c12 [CHRYSIN]
[1]
  IC50: < 30 µM

## O=c1oc2c(O)c(O)cc3c(=O)oc4c(O)c(O)cc1c4c23
[1]
  IC50: < 30 µM

## COc1ccc2c(=O)c(O)c(-c3ccc(OC)c(OC)c3)oc2c1
In vitro
  selectivity ratio: 8
WI-38
  Activity: Non-Toxic
[3]
  Activity: Active
Cytochrome P450 1A2
  inhibition (INH): Not Active
A549
  Activity: Non-Toxic
[4]
  MNTC at 72 h: 25 µM
786-0
  Activity: Non-Toxic

## O=C(O)/C=C/c1ccc(O)cc1 [COUMARIC ACID]
[1]
  IC50: < 30 µM
